Where two headings read alike, the source gives them in different places.

One may read the IC50 as the concentration at which inhibition is half-maximal.

Experiment [1] relates to NF54 strain of P. falciparum. The experiment is described as follows: parasite growth inhibition, chloroquine-sensitive NF54 strain cultured in vitro. In kind it is cell-based, Plasmodium falciparum.
Experiment [2] deals with Dd2 strain of P. falciparum. The experiment is described as follows: parasite growth inhibition, chloroquine-resistant Dd2 strain. Type of experiment: cell-based, Plasmodium falciparum.
Experiment [3] relates to β-hematin formation. Type of experiment: biochemical. Particulars: for IC50: read-out: β-hematin inhibition IC50, NP-40 detergent mediated assay.
Experiment [4] deals with hemozoin formation in NF54 strain of P. falciparum. The experiment is described as follows: cellular heme fractionation assay. In kind it is cell-based, Plasmodium falciparum. The note with it: NF54, 32 h incubation, drug added to early ring stage parasites.
The test system of experiment [5] is Chinese hamster ovarian, CHO, cells. The experiment in a line: cytotoxicity against mammalian cells. In kind it is cell-based.
Setting [6] is: read-out: NF54 malaria parasite growth inhibition IC50, chloroquine-sensitive NF54 strain, LDH method of Makler et al.

As to `CCN(CC)CCCC(C)Nc1ccnc2cc(Cl)ccc12` (stereo not drawn) [Chloroquine, reference compound], the IC50 in experiment [1] (Plasmodium falciparum, NF54, read-out: IC50 NF54) stood at 0.016 ± 0.006 µM; in experiment [1] (Plasmodium falciparum, NF54, read-out: NF54 malaria parasite growth inhibition IC50), 0.016 ± 0.006 µM; in experiment [2] (Plasmodium falciparum, DD2, read-out: IC50 Dd2), 0.15 ± 0.03 µM.
As to `O=C(Nc1ccc(-c2nc3ccccc3[nH]2)cc1)c1ccccc1` [Compound 2], in experiment [1], the “parasite growth inhibition activity (in words)” value is “virtually inactive”. The “β-hematin inhibition activity (in words)” value in experiment [3] was “virtually inactive”.
In the case of `O=C(Nc1ccc(-c2nc3ccccc3[nH]2)cc1)c1cncc(Br)c1` [Compound 5, N-(4-(1H-Benzo[d]imidazole-2-yl)phenyl)-5-bromonicotinamide], the “parasite growth inhibition activity (in words)” value in experiment [1] is “sub-micromolar”. Moreover, in experiment [4], the “change in freely exchangeable heme in the parasite cell” value is “corresponding increase”, the “change in hemozoin in the parasite cell” value was “large decrease” and the “change in undigested hemoglobin in the parasite cell” value is given as “much smaller (non-significant) increase”.
In the case of `O=C(Nc1ccc(-c2nc3ccccc3[nH]2)cc1)c1cc(Cl)nc(Cl)c1` [Compound 12, N-(4-(1H-Benzo[d]imidazole-2-yl)phenyl)-2,6-dichloroisonicotinamide], in experiment [1], the “parasite growth inhibition activity (in words)” value was “sub-micromolar”.
As for `O=C(Nc1ccc(-c2nc3ccccc3n2C(=O)c2ccccc2)cc1)c1cccc(Br)c1` [Compound 26, N-(4-(1H-Benzoyl-benzo[d]imidazole-2-yl)phenyl)-3-bromobenzamide], the IC50 was 2.6 ± 0.6 µM in experiment [1] (setting [6]) and 15.6 ± 0.5 µM in experiment [3].
With “N-(4-(1H-Benzo[d]imidazole-2-yl)phenyl)-3-(trifluoromethyl)nicotinamide [Compound 9]”, the “parasite growth inhibition activity (in words)” value in experiment [1] is given as “sub-micromolar”. Also, the IC50 in experiment [1] (read-out: IC50 NF54, chloroquine-sensitive NF54 strain (Table 2)) stood at 0.8 ± 0.5 µM; in experiment [1] (setting [6]) it was 0.8 ± 0.5 µM; in experiment [2] (read-out: IC50 Dd2, chloroquine-resistant Dd2 strain), 1.1 ± 0.37 µM; in experiment [3], 16.6 ± 0.3 µM; in experiment [5] (read-out: IC50 CHO, cytotoxicity in CHO cells), 35 ± 4 µM. Moreover, in experiment [2] (Dd2 versus NF54), the “RI (Resistance index = IC50 (Dd2)/IC50 (NF54))” value worked out at 1.4. The “SI (Dd2) (Selectivity index = IC50 (CHO)/IC50 (Dd2))” value in experiment [5] (CHO versus Dd2) is 32. In addition, the “SI (NF54) (Selectivity index = IC50 (CHO)/IC50 (NF54))” value in experiment [5] (CHO versus NF54) came to 44.

Values taken from publication PMC6232849 (European journal of medicinal chemistry, 2018).
